Data on 14 molecules can be found in patent US9777020B2, “Furo-3-carboxamide derivatives and methods of use” (AbbVie Inc., priority 2014, dated 2017).

The target in this experiment is TrkA (Homo sapiens (Human), UniProt P04629). Nature of the experiment: TrkA kinase HTRF enzyme inhibition assay. The experiment is classed as biochemical. The settings on record: TrkA pre-incubated with 200 μM ATP. Summed up: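 HTRF ratio read-out of biotin-peptide (125 nM) phosphorylation, 1 h reaction after TrkA (2-10 nM) auto-activation with ATP (200 μM) for 20 min and 10 min compound pre-incubation in 50 mM HEPES pH 7.4 with MgCl2/MnCl2. Percent inhibition from initial rates in duplicate, fitted to single-site equation for IC50.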
Chain of TrkA (P04629 33-796): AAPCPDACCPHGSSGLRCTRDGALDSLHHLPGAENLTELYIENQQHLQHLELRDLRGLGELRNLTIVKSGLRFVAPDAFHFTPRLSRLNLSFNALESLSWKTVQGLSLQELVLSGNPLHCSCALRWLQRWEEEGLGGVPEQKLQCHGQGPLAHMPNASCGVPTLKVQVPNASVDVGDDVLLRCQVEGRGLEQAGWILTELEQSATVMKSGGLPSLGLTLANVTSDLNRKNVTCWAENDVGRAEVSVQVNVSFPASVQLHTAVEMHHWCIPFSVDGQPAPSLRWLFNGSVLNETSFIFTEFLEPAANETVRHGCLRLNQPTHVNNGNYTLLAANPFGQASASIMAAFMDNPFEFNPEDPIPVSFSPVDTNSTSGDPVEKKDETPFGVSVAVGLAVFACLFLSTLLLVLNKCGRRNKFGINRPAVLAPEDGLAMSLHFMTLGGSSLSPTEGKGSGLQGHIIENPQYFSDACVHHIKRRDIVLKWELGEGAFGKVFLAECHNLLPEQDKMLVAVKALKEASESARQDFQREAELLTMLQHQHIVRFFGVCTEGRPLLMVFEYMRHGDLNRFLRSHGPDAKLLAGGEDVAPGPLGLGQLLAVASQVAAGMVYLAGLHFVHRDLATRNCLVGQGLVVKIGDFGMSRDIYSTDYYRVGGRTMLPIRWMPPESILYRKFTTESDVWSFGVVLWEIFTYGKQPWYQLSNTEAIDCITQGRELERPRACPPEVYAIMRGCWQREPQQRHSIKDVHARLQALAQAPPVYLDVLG
By IC50 is commonly meant the concentration needed to halve the response being measured. Low values mean greater potency, high ones weaker potency. In the case of `CN1CCN(c2ccc(NC(=O)c3coc4c3C(=O)NCC4)cc2)CC1` [Example 17, N-[4-(4-methylpiperazin-1-yl)phenyl]-4-oxo-4,5,6,7-tetrahydrofuro[3,2-c]pyridine-3-carboxamide], 81.4 nM corresponded to half-maximal inhibition (IC50). In the case of `CC1(C)CC(=O)c2c(C(=O)Nc3ccc(N4CCNCC4)cn3)coc2C1` [Example 151, 6,6-dimethyl-4-oxo-N-[5-(piperazin-1-yl)pyridin-2-yl]-4,5,6,7-tetrahydro-1-benzofuran-3-carboxamide] it was 63.4 nM.

Take `CC(=O)N1CCN(c2ccc(NC(=O)c3coc4c3C(=O)NC(C)(C)C4)c(OC(C)C)n2)C[C@H]1CO` [Example 133, N-{6-[(3S)-4-acetyl-3-(hydroxymethyl)piperazin-1-yl]-2-isopropoxypyridin-3-yl}-6,6-dimethyl-4-oxo-4,5,6,7-tetrahydrofuro[3,2-c]pyridine-3-carboxamide]: half-maximal inhibition (IC50) required 3.3 nM. In the case of `Cc1cc2[nH]ncc2cc1NC(=O)c1coc2c1C(=O)NCC2` [Example 46, N-(6-methyl-1H-indazol-5-yl)-4-oxo-4,5,6,7-tetrahydrofuro[3,2-c]pyridine-3-carboxamide] it was 855 nM; in that of `Cn1cc2cc(NC(=O)c3coc4c3C(=O)CNC4)ccc2n1` [Example 160, N-(2-methyl-2H-indazol-5-yl)-4-oxo-4,5,6,7-tetrahydrofuro[2,3-c]pyridine-3-carboxamide], 258 nM. In turn, `COc1cc(N2CCN(C(=O)CC(C)(C)C)CC2)ccc1NC(=O)c1coc2c1C(=O)NCC2` [Example 79, N-{4-[4-(3,3-dimethylbutanoyl)piperazin-1-yl]-2-methoxyphenyl}-4-oxo-4,5,6,7-tetrahydrofuro[3,2-c]pyridine-3-carboxamide] yielded a half-inhibitory concentration (IC50) of 44.7 nM. The same measure for `NC(=O)c1ccc(NC(=O)c2coc3c2C(=O)NCC3)cc1` [Example 13, N-(4-carbamoylphenyl)-4-oxo-4,5,6,7-tetrahydrofuro[3,2-c]pyridine-3-carboxamide]: 166 nM.

For `O=C(Nc1nc2ccccc2s1)c1coc2c1C(=O)NCC2` [Example 47, N-(1,3-benzothiazol-2-yl)-4-oxo-4,5,6,7-tetrahydrofuro[3,2-c]pyridine-3-carboxamide], the 50% inhibitory concentration (IC50) came to 1220 nM.

`CC(=O)N1CCN(c2ccc(NC(=O)c3coc4c3C(=O)CC(C)(C)C4)nc2)CC1` [Example 156, N-[5-(4-acetylpiperazin-1-yl)pyridin-2-yl]-6,6-dimethyl-4-oxo-4,5,6,7-tetrahydro-1-benzofuran-3-carboxamide] yielded a 50% inhibitory concentration (IC50) of 46.7 nM.

Turning to `COc1cc(N2CCN(C(=O)N3CCCC3)CC2)ccc1NC(=O)c1coc2c1C(=O)NCC2` [Example 80, N-{2-methoxy-4-[4-(pyrrolidin-1-ylcarbonyl)piperazin-1-yl]phenyl}-4-oxo-4,5,6,7-tetrahydrofuro[3,2-c]pyridine-3-carboxamide], half-maximal inhibition (IC50) was put at 67.7 nM. `CCOc1nc(N2CCN(C(C)=O)CC2)ccc1NC(=O)c1coc2c1C(=O)NC1(CCCCC1)C2` [Example 112, N-[6-(4-acetylpiperazin-1-yl)-2-ethoxypyridin-3-yl]-4′-oxo-4′,7′-dihydro-5′H-spiro[cyclohexane-1,6′-furo[3,2-c]pyridine]-3′-carboxamide] displayed a half-inhibitory concentration (IC50) of 27.3 nM.

Take `O=C(Nc1ccc2c(cnn2CCN2CCCC2)c1)c1coc2c1C(=O)NCC2` [Example 54, 4-oxo-N-{1-[2-(pyrrolidin-1-yl)ethyl]-1H-indazol-5-yl}-4,5,6,7-tetrahydrofuro[3,2-c]pyridine-3-carboxamide]: the half-maximal inhibitory concentration (IC50) was 108 nM.

In turn, `CC(=O)Nc1ccc(NC(=O)c2coc3c2C(=O)NCC3)cc1` [Example 32, N-(4-acetamidophenyl)-4-oxo-4,5,6,7-tetrahydrofuro[3,2-c]pyridine-3-carboxamide] showed a half-inhibitory concentration (IC50) of 554 nM. `Cc1ccc(NC(=O)c2coc3c2C(=O)NCC3)cc1` [Example 30, N-(4-methylphenyl)-4-oxo-4,5,6,7-tetrahydrofuro[3,2-c]pyridine-3-carboxamide] showed an IC50 of 521 nM.
